Measured values from patent publication US9056875B2, “Substituted pyrazolo[3′,4′:4,5]thieno[2,3-C]pyridazin-3-amine analogs as positive allosteric modulators of the muscarinic acetylcholine receptor M4” (Vanderbilt University, priority 2012, dated 2015).
Read-outs that look alike come from different tables or passages of the source.

Molecular target: T1, mAChR rM4 (Rattus norvegicus, UniProt P08485)
T1 construct: expressed in transfected cells
T1 sequence (P08485 1-478): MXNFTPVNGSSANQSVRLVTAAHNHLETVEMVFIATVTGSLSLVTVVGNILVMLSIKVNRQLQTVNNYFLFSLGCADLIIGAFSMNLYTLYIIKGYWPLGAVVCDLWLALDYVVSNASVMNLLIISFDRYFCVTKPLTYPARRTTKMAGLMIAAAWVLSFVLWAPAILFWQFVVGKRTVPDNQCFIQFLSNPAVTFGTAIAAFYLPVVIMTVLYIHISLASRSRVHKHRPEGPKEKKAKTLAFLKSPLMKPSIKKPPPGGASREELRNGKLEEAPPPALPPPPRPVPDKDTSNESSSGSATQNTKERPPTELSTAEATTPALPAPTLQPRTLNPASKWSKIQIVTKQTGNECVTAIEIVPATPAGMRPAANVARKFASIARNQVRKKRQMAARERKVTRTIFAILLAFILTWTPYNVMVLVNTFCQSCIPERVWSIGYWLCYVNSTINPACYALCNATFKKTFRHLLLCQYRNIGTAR
Test: mAChR rM4 cell-based functional assay (calcium mobilization, potentiation of EC20 acetylcholine response)
Details: for Emax at 30 µM: %ACh maximum at 30 μM; for EC50: rM4-transfected CHO-K1 cells, positive allosteric modulation of EC20 ACh response
Source text: Chinese hamster ovary (CHO-K1) cells stably expressing rat (r)M1 were purchased from the American Type Culture Collection and cultured according to their indicated protocol. CHO cells stably expressing human (h)M2, hM3, and hM5 were described previously (Levey A I, et al., (1991) J Neurosci 11:3218-3226.); hM1 and hM4 cDNAs were purchased from Missouri S&T cDNA Resource; rM4 cDNA was provided by T. I. Bonner (National Institutes of Health, Bethesda, Md.). rM2 and rM3 were cloned from a rat brain cDNA library and sequence verified. hM1, rM2, rM3, hM4, and rM4 cDNAs were used to stably transfect CHO-K1 cells purchased from the American Type Culture Collection using Lipofectamine® 2000. To make stable rM2, hM2, rM3, hM4, and rM4 cell lines for use in calcium mobilization assays, these cells also were stably transfected with a chimeric G-protein (Gqi5) (provided by B. R. Conklin, University of California, San Francisco) using Lipofectamine® 2000. rM1, hM1, rM3, hM3, rM5, and hM5 cells were grown in Ham's F-12 medium containing 10% heat-inactivated fetal bovine serum (FBS), 20 mM HEPES, and 50 μg/mL G418 sulfate. rM2-Gqi5, hM2-Gqi5, and hM4-Gqi5 cells were grown in the same medium also containing 500 μg/mL hygromycin B. Stable rM4-Gqi5 cells were grown in DMEM containing 10% heat-inactivated FBS, 20 mM HEPES, 400 μg/mL G418 sulfate, and 500 μg/mL Hygromycin B.
For high throughput measurement of agonist-evoked increases in intracellular calcium, CHO-K1 cells stably expressing the target muscarinic receptor were plated in growth medium lacking G418 and hygromycin at 15,000 cells/20 μL/well in Greiner 384-well black-walled, tissue culture (TC)-treated, clear-bottom plates (VWR). Cells were incubated overnight at 37° C. and 5% CO2. The next day, cells were washed using an ELX 405 (BioTek) with four washes (80 μL) of assay buffer then aspirated to 20 μL. Next, 20 μL of 16 μM Fluo-4/acetoxymethyl ester (Invitrogen, Carlsbad, Calif.) prepared as a 2.3 mM stock in DMSO and mixed in a 1:1 ratio with 10% (w/v) Pluronic F-127 and diluted in assay buffer was added to the wells and the cell plates were incubated for […] at 37° C. and 5% CO2. Dye was removed by washing with the ELX 405 (four 80 μL washes of assay buffer) then aspirated to 20 μL. Compound master plates were formatted in an 11 point CRC format (1:3 dilutions) in 100% DMSO with a starting concentration of 10 mM using the BRAVO liquid handler (Agilent). Test compound CRCs were then transferred to daughter plates (240 nL) using the Echo acoustic plate reformatter (Labcyte, Sunnyvale, Calif.) and then diluted into assay buffer (40 μL) to a 2× stock using a Thermo Fisher Combi (Thermo Fisher Scientific, Waltham, Mass.).
Calcium flux was measured using the Functional Drug Screening System (FDSS) 6000 (Hamamatsu Corporation, Tokyo, Japan) as an increase in the fluorescent static ratio. Compounds were applied to cells (20 μL, 2×) using the automated system of the FDSS 6000 at 4 s into the 300 s protocol and the data were collected at 1 Hz. At 144 s into the 300 s protocol, 10 μL of an EC20 concentration of the muscarinic receptor agonist acetylcholine was added (5×), followed by the addition of 12 μL an EC80 concentration of acetylcholine at the 230 s time point (5×). Agonist activity was analyzed as a concentration-dependent increase in calcium mobilization upon compound addition. Positive allosteric modulator activity was analyzed as a concentration-dependent increase in the EC20 acetylcholine response. Antagonist activity was analyzed as a concentration-dependent decrease in the EC80 acetylcholine response. Concentration-response curves were generated using a four-parameter logistical equation in XLfit™ curve fitting software (IDBS, Bridgewater, N.J.) for Excel (Microsoft, Redmond, Wash.) or Prism (GraphPad Software, Inc., San Diego, Calif.). […]

Emax at 30 µM	EC50 (read-out: EC50)	EC50 (read-out: pEC50 (converted))	SMILES
61%	2.5 µM	–	Cc1nnc2sc3c(NCC4CCN(S(C)(=O)=O)CC4)nn(C)c3c2c1C [Compound 24, 1,7,8-trimethyl-N-((1-(methylsulfonyl)piperidin-4-yl)methyl)-1H-pyrazolo[3′,4′:4,5]thieno[2,3-c]pyridazin-3-amine]
55%	0.5 µM	–	Cc1cc(CNc2nn(C)c3c2sc2nnc(C)c(C)c23)no1 [Compound 12, 1,7,8-trimethyl-N-((5-methylisoxazol-3-yl)methyl)-1H-pyrazolo[3′,4′:4,5]thieno[2,3-c]pyridazin-3-amine]
57%	0.13 µM	–	Cc1nnc2sc3c(NCc4ccc(S(C)(=O)=O)cc4)nn(C)c3c2c1C [Compound 2, 1,7,8-trimethyl-N-(4-(methylsulfonyl)benzyl)-1H-pyrazolo[3′,4′:4,5]thieno[2,3-c]pyridazin-3-amine]
55%	0.4 µM	–	Cc1nnc2sc3c(NC4CCOC4)nn(C)c3c2c1C (stereo not drawn) [Compound 8, 1,7,8-trimethyl-N-(tetrahydrofuran-3-yl)-1H-pyrazolo[3′,4′:4,5]thieno[2,3-c]pyridazin-3-amine]
60%	–	0.0389 µM	Cc1nnc2sc3c(NCc4ccoc4)nn(C)c3c2c1C [Compound 7, N-(furan-3-ylmethyl)-1,7,8-trimethyl-1H-pyrazolo[3′,4′:4,5]thieno[2,3-c]pyridazin-3-amine]
51%	1.4 µM	–	Cc1nnc2sc3c(NC4CNC4)nn(C)c3c2c1C [Compound 16, N-(azetidin-3-yl)-1,7,8-trimethyl-1H-pyrazolo[3′,4′:4,5]thieno[2,3-c]pyridazin-3-amine]
47%	0.21 µM	–	Cc1nnc2sc3c(NC4CCN(C(=O)OC(C)(C)C)CC4)nn(C)c3c2c1C [Compound 17, tert-butyl 4-((1,7,8-trimethyl-1H-pyrazolo[3′,4′:4,5]thieno[2,3-c]pyridazin-3-yl)amino)piperidine-1-carboxylate]
–	> 10 µM	–	Cc1nnc2sc3c(NCC4CCNCC4)nn(C)c3c2c1C [Compound 22, 1,7,8-trimethyl-N-(piperidin-4-ylmethyl)-1H-pyrazolo[3′,4′:4,5]thieno[2,3-c]pyridazin-3-amine]
56%	0.097 µM	–	Cc1nnc2sc3c(NC4CCSC4)nn(C)c3c2c1C (stereo not drawn) [Compound 6, 1,7,8-trimethyl-N-(tetrahydrothiophen-3-yl)-1H-pyrazolo[3′,4′:4,5]thieno[2,3-c]pyridazin-3-amine]
42%	0.71 µM	–	Cc1nnc2sc3c(NCC4CCN(C(=O)OC(C)(C)C)CC4)nn(C)c3c2c1C [Compound 21, tert-butyl 4-(((1,7,8-trimethyl-1H-pyrazolo[3′,4′:4,5]thieno[2,3-c]pyridazin-3-yl)amino)methyl)piperidine-1-carboxylate]
53%	–	0.0309 µM	Cc1nnc2sc3c(NCc4cccs4)nn(C)c3c2c1C [Compound 10, 1,7,8-trimethyl-N-(thiophen-2-ylmethyl)-1H-pyrazolo[3′,4′:4,5]thieno[2,3-c]pyridazin-3-amine]
55%	0.048 µM	–	COc1ccc(CNc2nn(C)c3c2sc2nnc(C)c(C)c23)cc1 [Compound 1, N-(4-methoxybenzyl)-1,7,8-trimethyl-1H-pyrazolo[3′,4′:4,5]thieno[2,3-c]pyridazin-3-amine]
55%	–	0.0129 µM	Cc1nnc2sc3c(NCc4ccc5c(c4)OCCO5)nn(C)c3c2c1C [Compound 13, N-((2,3-dihydrobenzo[b][1,4]dioxin-6-yl)methyl)-1,7,8-trimethyl-1H-pyrazolo[3′,4′:4,5]thieno[2,3-c]pyridazin-3-amine]
58%	–	0.0251 µM	Cc1nnc2sc3c(NC4CN(C(=O)OC(C)(C)C)C4)nn(C)c3c2c1C [Compound 9, tert-butyl 3-((1,7,8-trimethyl-1H-pyrazolo[3′,4′:4,5]thieno[2,3-c]pyridazin-3-yl)amino)azetidine-1-carboxylate]
54%	–	0.0141 µM	Cc1nnc2sc3c(NCc4ccc(F)c(S(C)(=O)=O)c4)nn(C)c3c2c1C [Compound 5, N-(4-fluoro-3-(methylsulfonyl)benzyl)-1,7,8-trimethyl-1H-pyrazolo[3′,4′:4,5]thieno[2,3-c]pyridazin-3-amine]
46%	0.34 µM	–	Cc1nnc2sc3c(NCC4CC4)nn(C)c3c2c1C [Compound 3, N-(cyclopropylmethyl)-1,7,8-trimethyl-1H-pyrazolo[3′,4′:4,5]thieno[2,3-c]pyridazin-3-amine]
51%	1.8 µM	–	CC(=O)N1CCC(Nc2nn(C)c3c2sc2nnc(C)c(C)c23)CC1 [Compound 20, 1-(4-((1,7,8-trimethyl-1H-pyrazolo[3′,4′:4,5]thieno[2,3-c]pyridazin-3-yl)amino)piperidin-1-yl)ethanone]
44%	1.8 µM	–	CC(=O)N1CCC(CNc2nn(C)c3c2sc2nnc(C)c(C)c23)CC1 [Compound 23, 1-(4-(((1,7,8-trimethyl-1H-pyrazolo[3′,4′:4,5]thieno[2,3-c]pyridazin-3-yl)amino)methyl)piperidin-1-yl)ethanone]
56%	0.055 µM	–	Cc1ncsc1CNc1nn(C)c2c1sc1nnc(C)c(C)c12 [Compound 11, 1,7,8-trimethyl-N-((4-methylthiazol-5-yl)methyl)-1H-pyrazolo[3′,4′:4,5]thieno[2,3-c]pyridazin-3-amine]
69%	0.17 µM	–	CC(=O)N1CC(Nc2nn(C)c3c2sc2nnc(C)c(C)c23)C1 [Compound 14, 1-(3-((1,7,8-trimethyl-1H-pyrazolo[3′,4′:4,5]thieno[2,3-c]pyridazin-3-yl)amino)azetidin-1-yl)ethanone]
31%	5.2 µM	–	Cc1nnc2sc3c(NC4CCNCC4)nn(C)c3c2c1C [Compound 18, 1,7,8-trimethyl-N-(piperidin-4-yl)-1H-pyrazolo[3′,4′:4,5]thieno[2,3-c]pyridazin-3-amine]
64%	0.063 µM	–	Cc1nnc2sc3c(NC4CN(S(C)(=O)=O)C4)nn(C)c3c2c1C [Compound 15, 1,7,8-trimethyl-N-(1-(methylsulfonyl)azetidin-3-yl)-1H-pyrazolo[3′,4′:4,5]thieno[2,3-c]pyridazin-3-amine]
50%	0.18 µM	–	Cc1nnc2sc3c(NCc4ccco4)nn(C)c3c2c1C [Compound 4, N-(furan-2-ylmethyl)-1,7,8-trimethyl-1H-pyrazolo[3′,4′:4,5]thieno[2,3-c]pyridazin-3-amine]
